Paper PMC7738871, “Covalent modification of Keap1 at Cys77 and Cys434 by pubescenoside a suppresses oxidative stress-induced NLRP3 inflammasome activation in myocardial ischemia-reperfusion injury” (Theranostics, 2021)

Tests used:
[1] = target: T1, Keap1 WT (Homo sapiens, UniProt Q14145); assay: ITC titration of PBA with Keap1-WT; assay type: binding; conditions: 25 ℃
T1 construct: His (N); made in house; host or cells: E. coli BL21 (DE3)
Description: The Keap1 was amplified by PCR using a human cDNA library, and was subcloned into the vector pET28-TEV, which contained one tobacco etch virus (TEV) protease cleavage site at the upstream multiple cloning site. The protein was expressed in E. coli BL21 (DE3) cells and incubated at 37 °C until the OD600 value reached 0.6, using 0.2 mM isopropyl β-D-1-thiogalactopyranoside (IPTG) overnight induction at 18 °C. The cells were isolated by centrifugation, resuspended in ice-cold lysis buffer and lysed by cryogenic overpressure cell breaker at 1,200 psi. The lysates were centrifuged for 60 min at 14,000 rpm to obtain the supernatant. Gravity flow purification of Keap1 protein was obtained at room temperature using 1 mL of Ni-NTA and eluted in buffer containing 250 mM imidazole, followed by 1 mL of HiTrap QHP for the second step purification. The final protein was purified and validated by Superdex 200 10/300GL resin.
Isothermal calorimetry (ITC) titration experiments were performed at 25 °C. WT Keap1, Keap1 mutants and PBA were dissolved in binding buffer (40 mM Tris-HCl pH 8.0, 250 mM NaCl). In a typical experiment, 60 μL of PBA (1 mM) was injected 19 times at 2-min intervals from a stirring syringe into the sample cell containing 300 μL of WT protein or mutants (30 μM). The first injection was 0.4 μL of PBA, and the subsequent 18 injections were 2 μL each time. The site-binding models were determined by using MicroCal Origin software.

[2] = test system: OGD/R-induced H9c2 cells; assay: OGD/R-induced injury, MTT viability, H9c2; assay type: cell-based, rat; conditions: H9c2, 10 and 30 μM, OGD 6 h, reperfusion 18 h
Description: For OGD/R treatment, H9c2 cells were washed twice with phosphate buffered saline (PBS). The medium was changed to glucose and serum free DMEM, and H9c2 cells were incubated in an incubator with 95% N2 and 5% CO2 at 37 °C. After 6 h, the medium was replaced with DMEM containing 10% FBS and 1% PS. Then H9c2 cells were returned to a normal incubator with 5% CO2 balanced with air at 37 °C for the indicated time.
(§1) Cell viability was determined by MTT assays. PBA was prepared to a stock solution dissolved in dimethyl sulfoxide (DMSO). RAW264.7, H9c2 cells, primary mouse cardiomyocytes were treated with different doses of PBA, and DMSO only as control for 48 h for the toxicity. In addition, H9c2 cells or primary mouse cardiomyocytes were treated with the indicated doses of PBA, diazoxide as positive control, DMSO only as control, then cultured with or without OGD/R treatment. At the end of the experiments, MTT was added into each well at the concentration of 0.5 mg/ml, and incubated at 37 °C for 4 h. After removal of the supernatant, 150 μL of DMSO was added to solubilize the formazan products. And the solution was measured at the absorbance of 490 nm by a spectrophotometer (Thermo Fisher Scientific, MA, USA). The results of the MTT assay in all groups were normalized to the control group with DMSO only treatment.

[3] = test system: HO-1 and NQO1; assay: HO-1 and NQO1 protein expression, H9c2; assay type: cell-based, rat; conditions: H9c2 cells, 24 h, dose-dependent
Description: Total protein was isolated from H9c2 cells, primary mouse cardiomyocytes, RAW264.7 cells and heart tissue using 1X RIPA buffer containing phosphatase and proteinase inhibitors at 4 °C. After measurement of the concentration, the cell lysates were separated by sodium dodecyl sulphate polyacrylamide gel electrophoresis (SDS-PAGE) and transferred to polyvinylidene fluoride (PVDF) membranes. The membranes were blocked in Tris-buffered saline-Tween 20 (TBST) buffer with 5% BSA for 1 h and incubated with primary antibodies (1:1000 dilution) overnight at 4 °C. After the membranes was washed by TBST buffer for three times, they were incubated with horseradish peroxidase (HRP)-conjugated secondary mouse or rabbit antibodies (1:3,000 dilution) at room temperature (RT) for 1.5 h and then detected by SuperEnhanced chemiluminescence (ECL) reaction reagents (GBCBIO Technologies Inc., Guangzhou, Guangdong, China). In brief, drop evenly the ECL working liquid onto the membrane at the ratio of 1 mL ECL working liquid and 10 cm^2 of membrane. After letting the membranes stand for 1-2 min, the bands of the respective proteins were detected with the exposure time of 10 ~60 s.

[4] = test system: Nrf2 knockdown H9c2 cells; assay: OGD/R viability in Nrf2 siRNA knockdown H9c2; assay type: cell-based, rat; conditions: Nrf2 siRNA 24 h, H9c2, MTT
Description: as §1
For transient transfection, HiPerFect Transfection Reagent (Qiagen, German) was used according to the manufacturer's instructions. Nrf2 siRNA (h) (sc-156128) and control siRNA-A (sc-37007) were bought from Santa Cruz Biotechnology. Briefly, H9c2 cells were seeded in 96-well plate at the density of 2x10^4 cells per well or 12-well plate at the density of 3x10^5 cells per well. According to preliminary results, transfection with siRNA for 24 h could get a better knockdown effect. […]

[5] = test system: recombinant Keap1 mutant proteins; assay: Pull-down of recombinant Keap1 mutants with PBA-Sepharose 4B; assay type: binding, human; conditions: cysteine to serine mutants
Description: PBA-Sepharose 4B beads were created by dissolving PBA in coupling buffer (100 mM NaHCO3, pH 8.3, 0.5 M NaCl). After washing with 1 mM HCl medium, Sepharose 4B beads were mixed with PBA coupling buffer and slowly rotated overnight at 4 °C. Excess PBA was washed away with coupling buffer and any remaining active groups were blocked with 0.1 M Tris-HCl buffer (pH 8.0) for 2 h. The medium was then washed with 0.1 M acetate buffer (pH 4.0) containing 0.5 M NaCl followed by a wash with 0.1 M Tris-HCl (pH 8.0) that also contained 0.5 M NaCl. PBA-Sepharose 4B beads were ready for use in the pull-down assay. The RAW264.7 cellular supernatant fraction (600 µg) was incubated with either PBA-Sepharose 4B or Sepharose 4B as a negative control in reaction buffer (50 mM Tris-HCl, pH 7.5, 5 mM EDTA, 150 mM NaCl, 1 mM DTT, 0.01% NP-40, 2 µg/mL of BSA, 0.02 mM PMSF, 1 × protease inhibitor cocktail). After incubation with gentle rocking overnight at 4 °C, the beads were washed five times with wash buffer (50 mM Tris-HCl, pH 7.5, 5 mM EDTA, 150 mM NaCl, 1 mM DTT, 0.01% NP-40, 0.02 mM PMSF) and proteins bound to the beads were analyzed by immunoblotting assay with a Keap1 antibody.
The mutant plasmid DNA was obtained by PCR. The PCR products were cleaved by DpnI restriction enzymes. […] Colonies were evaluated by colony PCR and sequenced. […]

T1 sequence (Q14145 whole entry): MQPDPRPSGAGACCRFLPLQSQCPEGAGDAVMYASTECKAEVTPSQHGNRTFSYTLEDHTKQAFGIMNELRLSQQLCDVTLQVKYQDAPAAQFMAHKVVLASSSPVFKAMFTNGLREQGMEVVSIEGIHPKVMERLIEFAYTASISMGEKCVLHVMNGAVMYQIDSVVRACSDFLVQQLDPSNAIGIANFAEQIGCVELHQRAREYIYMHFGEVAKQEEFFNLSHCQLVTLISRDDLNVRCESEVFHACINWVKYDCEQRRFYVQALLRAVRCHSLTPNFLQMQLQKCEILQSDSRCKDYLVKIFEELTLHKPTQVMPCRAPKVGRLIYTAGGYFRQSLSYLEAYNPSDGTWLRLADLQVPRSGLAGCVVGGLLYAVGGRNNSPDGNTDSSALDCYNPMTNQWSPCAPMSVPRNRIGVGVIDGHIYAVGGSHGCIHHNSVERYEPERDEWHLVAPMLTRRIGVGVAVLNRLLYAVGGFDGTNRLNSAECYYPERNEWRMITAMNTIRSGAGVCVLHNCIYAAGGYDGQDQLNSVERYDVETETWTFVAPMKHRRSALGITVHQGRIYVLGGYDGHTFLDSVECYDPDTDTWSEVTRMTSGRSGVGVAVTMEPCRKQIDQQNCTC

Kd [1]: 2.61 µM
T△S [1]: 4.31 ± 0.00 kcal/mol
△G [1]: -7.62 ± 0.00 kcal/mol
△H [1]: -3.31 ± 0.199 kcal/mol
binding of Keap1 mutants of Cys434, Cys77, Cys23 and Cys38 (pull-down) [5]: lost the capacity to bind
binding of other Keap1 mutants (pull-down) [5]: retained their high binding affinity
Structure (SMILES): C=C(COC(=O)C=Cc1ccc(O)c(O)c1)C(O)COC1OC(CO)C(O)C(O)C1O (stereo not drawn) [PBA, pubescenoside A]
protection against OGD/R induced injury (cell viability, MTT) [2]: protected
HO-1 and NQO1 expression at the protein level [3]: increased
cardioprotection against OGD/R after Nrf2 knockdown [4]: blocked
